# Results as given in patent publication US10993993B2, “Pharmaceutical composition for treating muscle atrophy or sarcopenia including glucagon-like peptide (GLP-1) or GLP-1 receptor agonist” (IMMUNOFORGE CO., LTD., priority 2015, dated 2021).
# “Also recorded” adds a separate entry of the source. Ends that are not written are not given here.
# Legend:
# myostatin and MyoD = assay: Myostatin and MyoD expression in dexamethasone-treated mice given sitagliptin or GLP-1(32-36)amide (Example 3-3); assay type: in vivo, C57BL/6J male mice; settings: dexamethasone 20 mg/kg i.p.; sitagliptin 300 mg/kg oral gavage, GLP-1(32-36)amide 5 μg/kg i.p.; FIG. 9
# Experimental: The present inventors treated C57BL/6J male mice (n=10/group) with dexamethasone (20 mg/kg/i.p.) to reduce muscles of the mice, and they examined effects of sitagliptin (300 mg/kg/oral gavage) and GLP-1(32-36)amide (5 μg/kg/i.p.) on the body weights and muscles of the mice. Therefore, the present inventors examined a change in the expression level of myostatin, which is a cause of muscle atrophy, and a change in the expression level of the muscle-producing factor MyoD by sitagliptin and GLP-1(32-36)amide.
# [1] = tested on: muscle atrophy animal model (dexamethasone); assay: Body weight of dexamethasone-treated mice given sitagliptin or GLP-1(32-36)amide (Example 3-1); assay type: in vivo, C57BL/6J male mice; settings: dexamethasone 20 mg/kg i.p.; sitagliptin 300 mg/kg oral gavage, GLP-1(32-36)amide 5 μg/kg i.p.; FIG. 6
# Experimental: (§1) The present inventors treated C57BL/6J male mice (n=10/group) with dexamethasone (20 mg/kg/i.p.) to reduce muscles of the mice, and they examined effects of sitagliptin (300 mg/kg/oral gavage) and GLP-1(32-36)amide (5 μg/kg/i.p.) on the body weights and muscles of the mice.
# [2] = tested on: muscle atrophy animal model (dexamethasone); assay: Grip strength of dexamethasone-treated mice given sitagliptin or GLP-1(32-36)amide (Example 3-2); assay type: in vivo, C57BL/6J male mice; settings: dexamethasone 20 mg/kg i.p.; sitagliptin 300 mg/kg oral gavage, GLP-1(32-36)amide 5 μg/kg i.p.; FIG. 8
# Experimental: as §1, with “mice. In detail, the grip strength when all of the paws of the mouse of Example 6 were pulled with the same force was measured by a grip strength machine.” for “mice.”
# [3] = tested on: muscle atrophy animal model (dexamethasone); assay: Muscle mass of dexamethasone-treated mice given sitagliptin or GLP-1(32-36)amide (Example 3-1); assay type: in vivo, C57BL/6J male mice; settings: dexamethasone 20 mg/kg i.p.; sitagliptin 300 mg/kg oral gavage, GLP-1(32-36)amide 5 μg/kg i.p.; FIG. 7
# Experimental: as §1
# [4] = tested on: dexamethasone-induced muscle atrophy or sarcopenia mice; assay: Muscle mass of dexamethasone-treated mice given long-acting GLP-1(7-36) (Example 2-3); assay type: in vivo, male C57BL6J mice; settings: dexamethasone 20 mg/kg i.p., Trulicity 1 mg/kg, PB1023 3 mg/kg s.c.; for total muscle mass: after three weeks, vs Dex-vehicle group, FIG. 12A
# Experimental: (§2) Specifically, 10-week-old male C57BL6J mice were divided into 10 mice per group (total n=40), and saline and dexamethasone (20 mg/kg) were each intraperitoneally administered to the control and experimental groups each day. The grip strength of the mice was measured on day 9.
# (§3) Subsequently, on day 11, the control mice were administered with saline three times per week by subcutaneous injection (Co-vehicle group), whereas the comparative mice were administered with either (i) saline three times per week by subcutaneous injection (Dex-vehicle group), (ii) Trulicity (SEQ ID NO: 5) two times per week by subcutaneous injection (1 mg/kg; Trulicity group), or (iii) PB1023 three times per week by subcutaneous injection (3 mg/kg; PB1023 group).
# (§4) Thereafter, the grip strength was measured and a four limb hanging test was performed on day 14, and tissue sampling was performed on day 22.
# [5] = tested on: dexamethasone-induced muscle atrophy or sarcopenia mice; assay: Grip strength of dexamethasone-treated mice given long-acting GLP-1(7-36) (Example 2-2); assay type: in vivo, male C57BL6J mice; settings: dexamethasone 20 mg/kg i.p., Trulicity 1 mg/kg s.c. two times per week, PB1023 3 mg/kg s.c. three times per week, after two weeks, FIGS. 11A and 11B
# Experimental: as §2, §3, §4
# [6] = tested on: muscle atrophy-induced mice (dexamethasone); assay: Body weight of dexamethasone-induced muscle atrophy mice treated with exendin-4 (Example 1-1); assay type: in vivo, C57BL/6J male mice; settings: exendin-4 100 ng/mouse i.p. 12 days following dexamethasone 200 mg/kg i.p. 8 days; vs dexamethasone alone; from day 11; FIG. 1
# Experimental: It is known that muscle atrophy is caused by chronic diseases (chronic renal failure, chronic heart failure, chronic obstructive disease, etc.), and caused by administration of a high dose of a drug such as dexamethasone. Thus, animal models (C57BL/6J male mice) were treated with dexamethasone to prepare sarcopenia models. When sarcopenia occurred, effects of exendin-4 were investigated.
# (§5) In detail, control mice which were not administered with dexamethasone or exendin-4, mice in which muscle atrophy was induced by intraperitoneal injection of dexamethasone (200 mg/kg) for 8 days, comparative mice which were intraperitoneally injected with exendin-4 (100 ng/mouse) for 12 days, and mice in which muscle atrophy was treated by intraperitoneal injection of exendin-4 (100 ng/mouse) for 12 days following intraperitoneal injection of dexamethasone (200 mg/kg) for 8 days were prepared. While these mice were raised for 20 days, changes in their body weights were measured (FIG. 1).
# [7] = tested on: muscle atrophy-induced mice (dexamethasone); assay: Skeletal muscle weights of muscle atrophy-induced mice treated with exendin-4 (Example 1-2); assay type: in vivo, C57BL/6J male mice; settings: exendin-4 100 ng/mouse i.p. 12 days following dexamethasone 200 mg/kg i.p. 8 days; FIG. 2
# Experimental: as §5
# The control mice (control), dexamethasone-induced muscle atrophy mice, exendin-4-treated comparative mice, and muscle atrophy-treated mice treated with exendin-4 following treatment of dexamethasone, which were prepared in Example 1-1, were sacrificed, and total weights of the skeletal muscles of the respective mice were measured. Quadratus muscles, gastrocnemus muscles, tibialis anterior muscles, soleus muscles, and extensor digitorum longus muscles constituting the skeletal muscles were each separated, and their weights were compared (FIG. 2).
# [8] = tested on: muscle atrophy-induced mice (dexamethasone); assay: Grip strength of muscle atrophy-induced mice treated with exendin-4 (Example 1-3); assay type: in vivo, C57BL/6J male mice; settings: exendin-4 100 ng/mouse i.p. 12 days following dexamethasone 200 mg/kg i.p. 8 days; FIG. 3
# Experimental: as §5
# The control mice (control), dexamethasone-induced muscle atrophy mice, exendin-4-treated comparative mice, and muscle atrophy-treated mice treated with exendin-4 following treatment of dexamethasone, which were prepared in Example 1-1, were subjected to measurement of grip strength to investigate whether muscle functions were recovered (FIG. 3). In this regard, a force measured by a grip strength machine when all of the paws of a mouse were pulled with the same force was considered as the grip strength.
# [9] = tested on: myostatin, atrogin-1, MuRF1, MyoD and myogenin genes; assay: Expression of muscle protein-destroying and -producing genes in muscle tissue, PCR (Example 1-4); assay type: in vivo, C57BL/6J male mice; settings: exendin-4 following dexamethasone, FIG. 4
# Experimental: as §5
# It is known that when muscle atrophy occurs, expression of muscle protein-destroying genes (myostatin, atrogin-1, and MuRF1) is increased and expression of muscle protein-producing genes (MyoD and myogenin) is decreased; thus, this was to be examined That is, muscle tissues were removed from the control mice (control), dexamethasone-induced muscle atrophy mice, exendin-4-treated comparative mice, and muscle atrophy-treated mice treated with exendin-4 following treatment of dexamethasone, which were prepared in Example 1-1, and total RNAs were obtained from the muscle tissues. cDNAs were synthesized therefrom, each gene was amplified from the synthesized cDNA by PCR, and changes in the expression levels thereof were compared (FIG. 4).
# [10] = tested on: myostatin, atrogin-1, and MuRF1 in C2C12 myocytes; assay: Expression of muscle atrophy-related genes in dexamethasone-treated C2C12 myocytes (Example 1-5); assay type: cell-based; settings: 20 nM exendin-4 6 hours following 1 μM dexamethasone 12 hours, FIG. 5
# Experimental: A myoblast cell line C2C12 was differentiated into myocytes by culturing in a medium containing 2% (v/v) horse serum for 5 days. Control myocytes (control) prepared from the differentiated myocytes without any treatment, myocytes in which muscle atrophy symptoms were induced by treatment of 1 μM dexamethasone for 12 hours, comparative myocytes treated with 20 nM exendin-4 for 6 hours, and experimental myocytes in which muscle atrophy symptoms were treated with 20 nM exendin-4 for 6 hours following treatment of 1 μM dexamethasone for 12 hours were each prepared. Expression levels of muscle atrophy-related genes (myostatin, atrogin-1, and MuRF1) were compared in each of the myocytes (FIG. 5).
molecule,measurement,setting,value
N[C@@H](CC(=O)N1CCn2c(nnc2C(F)(F)F)C1)Cc1cc(F)c(F)cc1F [sitagliptin],MyoD expression,myostatin and MyoD,increased again
same,myostatin expression,myostatin and MyoD,decreased again
same,body weight,[1],increased
same,grip strength,[2],increased again
same,muscle mass,[3],increased
GLP-1(32-36)amide (LVKGR-NH2),MyoD expression,myostatin and MyoD,increased again
same,myostatin expression,myostatin and MyoD,decreased again
same,body weight,[1],increased
same,grip strength,[2],increased again
same,muscle mass,[3],increased
dulaglutide [Trulicity],muscle mass of EDL (Extensor digitorum longus) and QD (Quadratus),[4]; B to F of FIG. 12,statistical significance was confirmed by an increase in muscle mass
same,"muscle mass of TA (Tibialis anterior), Sol (Soleus), and GA (Gastrocnemius)",[4]; B to F of FIG. 12,tendency of increasing muscle mass
same,total muscle mass,[4],significantly increased compared to the Dex-vehicle group
same,total muscle mass,[4]; listed as dulaglutide,muscle mass was increased
same,grip strength,[5],improved to a significant level
same,grip strength,[5]; listed as dulaglutide,enhanced
exendin-4,body weight,[6],increase in the body weight was observed; also recorded: reduced body weight was restored
same,skeletal muscle mass (all kinds of skeletal muscles),[7],increased muscle mass similar to that of the control or comparative group; also recorded: reduced skeletal muscle mass was restored
same,grip strength,[8],remarkably higher level of grip strength than the muscle atrophy-induced mice; also recorded: reduced grip strength was restored
same,"relative expression levels of muscle protein-destroying genes (myostatin, atrogin-1, and MuRF1)",[9],lowest relative expression levels; also recorded: decreased
same,relative expression levels of muscle protein-producing genes (MyoD and myogenin),[9],highest relative expression levels; also recorded: increased
same,"expression levels of muscle atrophy-related genes (myostatin, atrogin-1, and MuRF1)",[10],remarkably decreased expression levels
